The values below come from ChEMBL document CHEMBL1133542, “Adenosine deaminase inhibitors: synthesis and biological evaluation of unsaturated, aromatic, and oxo derivatives of (+)-erythro-9-(2'S-hydroxy-3'R-nonyl)adenine [(+)-EHNA]” (J Med Chem, 2000).

The assay concerns the target T1, Adenosine deaminase (Bos taurus, UniProt P56658).
T1 sequence (P56658 whole entry): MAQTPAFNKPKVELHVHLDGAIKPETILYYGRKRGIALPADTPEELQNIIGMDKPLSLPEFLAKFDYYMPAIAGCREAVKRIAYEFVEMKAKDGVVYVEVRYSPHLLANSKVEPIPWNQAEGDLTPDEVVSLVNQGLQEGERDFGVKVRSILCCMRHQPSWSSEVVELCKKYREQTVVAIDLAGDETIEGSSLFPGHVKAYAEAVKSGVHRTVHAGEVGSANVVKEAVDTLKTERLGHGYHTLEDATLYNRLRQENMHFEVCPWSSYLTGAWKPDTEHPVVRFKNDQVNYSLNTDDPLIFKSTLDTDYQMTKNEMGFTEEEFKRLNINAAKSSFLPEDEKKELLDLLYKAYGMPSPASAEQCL

The Ki is a dissociation constant, usually derived from enzyme kinetics or from competition with a known ligand. A higher Ki goes with a looser hold on the target.

Description: Inhibition of Adenosine deaminase (ADA) of calf intestine

Take `C[C@H](O)[C@@H](COCCc1ccccc1)n1cnc2c(N)ncnc21`: the affinity, expressed as Ki, was 93.1 nM.

On to `CCCCOC[C@H]([C@H](C)O)n1cnc2c(N)ncnc21`, for which the Ki came out at 123 nM. This Ki and that of the molecule before are within 1.5-fold of each other.
